“Also recorded” adds a separate entry of the source.
Experiments:
[1] = bioavailability of 17 β-estradiol in rats via intravenous, nasal and intraduodenal/oral routes (TUE, E2, E1 in blood); format: in vivo, Sprague-Dawley male rats
Method: (§1) Sprague-Dawley male rats, each weighing about 270 grams, were used in the progesterone study. For nasal administration, the rats were anesthetized using sodium pentobarbital (50 mg/kg) and the drug was administered to the nasal cavity by means of a micropipet at dosage levels of 50 μg, 100 μg and 150 μg/rat of [4-^14 C]-progesterone (~8.5 μCi/rat) in 0.1 ml of isotonic saline containing 1-2% Tween 80 as a solubilizing agent, according to the procedure described by Hirai et al, the 98th Annual Meeting of Pharmaceutical Society of Japan, Okayama, April 1978, except that the end of the tube leading from the esophagus to the nasal cavity was closed and the drug was administered to the nostrils which were then closed with an adhesive agent. For oral (intraduodenal) administration, the rats were anesthetized and the abdomen of each rat was opened through a midline incision and a 50 μg/rat dose of the drug ([4-^14 C]-progesterone in 0.1 ml isotonic saline with 1-2% Tween 80) was injected directly through the duodenum. For intravenous administration, the rats were anesthetized and the drug was injected through the femoral vein at dosage levels of 50 μg, 100 μg and 150 μg/rat of [4-^14 C]-progesterone in 0.1 ml of isotonic saline containing 1-2% Tween 80. Blood was sampled periodically from the […] after IV and nasal administration, and from the tail vein after ID administration. Blood levels of progesterone were determined by thin layer chromotography.
Sprague-Dawley male rats, each weighing approximately 270 grams, were given dosages of 5 μg, 10 μg and 20 μg/rat of [6,7-^3 H] […] Blood samples were taken periodically as described in the progesterone study and assayed for estradiol (E2), estrone (E1) and total unconjugated estrogens (TUE).

[2] = by mouth; rapid metabolism in intestinal epithelium and liver; cited from earlier work
[3] = bioavailability of progesterone in rats after intravenous, nasal and intraduodenal/oral administration; format: in vivo, Sprague-Dawley male rats
Method: as §1

Compound	absorption by the nasal mucosa ([1]; nasal)	nasal vs oral bioavailability of E2 ([1]; rat, in vivo)	nasal vs oral bioavailability of TUE ([1]; rat, in vivo)	bioavailability ([1]; rat, in vivo, E2 bioavailability relative to corresponding IV doses)	bioavailability ([1]; rat, in vivo, po, E2 AUC ratio vs. IV)	bioavailability ([1]; rat, in vivo, po, E2 bioavailability relative to corresponding IV doses)	oral effectiveness [2]	nasal bioavailability vs oral bioavailability ([3]; 50 μg dosage level)	area under the curve as a function of dose ([3]; IV and nasal routes, 50, 100, 150 μg, FIG. 2)	area under the curve, intravenous vs nasal (two tailed t-test) ([3]; at each dose)	absorption from the nasal mucosa ([3]; nasal)	nasal bioavailability vs intravenous bioavailability ([3]; nasal vs intravenous)	nasal bioavailability vs oral bioavailability (in words) ([3]; nasal vs oral)	Tmax ([3]; rat, in vivo)	bioavailability ([3]; rat, in vivo, iv, AUC ratio Nasal/IV)	bioavailability ([3]; rat, in vivo, oral bioavailability relative to equivalent IV dose)
C[C@]12CC[C@@H]3c4ccc(O)cc4CC[C@H]3[C@@H]1CC[C@@H]2O [17 β-estradiol, estra-1,3,5(10)-triene-3,17 β-diol]	rapidly absorbed by the nasal mucosa; also recorded: rapidly absorbed from the nasal mucosa into systemic blood without extensive intestinal or first pass metabolism	13.23-21.74 times	2.26-2.83 times	50.5 to 83.9%	3.8%	3.1 to 5%	–	–	–	–	–	–	–	–	–	–
CC(=O)[C@H]1CC[C@H]2[C@@H]3CCC4=CC(=O)CC[C@]4(C)[C@H]3CC[C@]12C [progesterone, pregn-4-ene-3,20-dione]	–	–	–	–	–	–	not effective by mouth	85.75 times	directly proportional to the dose administered	not significantly different, even at the 0.001 level	very rapidly absorbed from the nasal mucosa; also recorded: rapidly absorbed from the nasal mucosa into the systemic circulation without first pass metabolism; also recorded: rapidly absorbed from the nasal mucosa into systemic blood without extensive intestinal or first pass metabolism	equivalent	vastly superior	< 7 min	103%	1.2%

Source: patent publication US4383993A, “Nasal dosage forms containing natural female sex hormones” (priority 1981, dated 1983)
